Laboratory results taken from ChEMBL document CHEMBL5244273, “Tuberculosis: An Overview of the Immunogenic Response, Disease Progression, and Medicinal Chemistry Efforts in the Last Decade toward the Development of Potential Drugs for Extensively Drug-Resistant Tuberculosis Strains” (J Med Chem, 2021).
≈ marks a conversion by molar mass, not a printed value.

Columns and labels:
[1] = system: Mycobacterium tuberculosis; assay: Antitubercular activity against Mycobacterium tuberculosis H37Rv assessed as inhibition of bacterial growth by alamar blue assay; type: functional
[2] = system: Mycobacterium tuberculosis; assay: Antimycobacterial activity against Mycobacterium tuberculosis H37Rv incubated for 2 weeks; type: functional; conditions: 336 h
[3] = system: Mycobacterium tuberculosis; assay: Antimycobacterial activity against Mycobacterium tuberculosis H37Rv incubated for 3 weeks; type: functional; conditions: 504 h
[4] = system: Mycobacterium tuberculosis; assay: Antimycobacterial activity against Mycobacterium tuberculosis H37Rv incubated for 4 weeks; type: functional; conditions: 672 h
[5] = system: Mycobacterium tuberculosis; assay: Antimycobacterial activity against Mycobacterium tuberculosis H37Rv incubated for 5 weeks; type: functional; conditions: 840 h
[6] = system: Mycobacterium tuberculosis; assay: Antimycobacterial activity against Mycobacterium tuberculosis H37Rv assessed as inhibition of bacterial growth incubated for 5 days by alamar blue assay; type: functional; conditions: 120 h, time 5 day
[7] = system: Mycobacterium tuberculosis; assay: Potentiation of ethionamide induced antibacterial activity against Mycobacterium tuberculosis H37Rv expressing GFP incubated for 5 days by fluorescence based analysis; type: functional, organism-based; conditions: 120 h
[8] = system: Mycobacterium tuberculosis; assay: Antimycobacterial activity against Mycobacterium tuberculosis H37Rv infected in human THP-1 cells assessed as inhibition of bacterial growth; type: functional, organism-based

O=C(/C=C/c1ccco1)NNC(=O)c1ccncc1
MIC [1]: 12.5 µg/mL (≈ 48.6 µM)

COc1ccc(-c2cc3c(cc2F)c(=O)c(C(=O)O)cn3C(C)(C)C)cc1
MIC [2]: 0.5 µg/mL (≈ 1.35 µM)
MIC [3]: 1 µg/mL (≈ 2.71 µM)
MIC [4]: 1 µg/mL (≈ 2.71 µM)
MIC [5]: 2 µg/mL (≈ 5.41 µM)

CC(C)(C)OC(=O)Nc1ccc(-c2cc3c(cc2F)c(=O)c(C(=O)O)cn3C(C)(C)C)cc1
MIC [2]: 4 µg/mL (≈ 8.8 µM)
MIC [3]: 4 µg/mL (≈ 8.8 µM)
MIC [4]: 4 µg/mL (≈ 8.8 µM)
MIC [5]: 4 µg/mL (≈ 8.8 µM)

O=C(NNS(=O)(=O)c1ccccc1)c1ccncc1
MIC [1]: 50 µg/mL (≈ 180 µM)

CC(C)(C)n1cc(C(=O)O)c(=O)c2cc(F)c(Sc3ccccc3)cc21
MIC [2]: 8 µg/mL (≈ 21.5 µM)
MIC [3]: 16 µg/mL (≈ 43.1 µM)
MIC [4]: 16 µg/mL (≈ 43.1 µM)
MIC [5]: 16 µg/mL (≈ 43.1 µM)

Cc1ccc(Nc2nn3c(O)cc(C)nc3c2C(=O)Nc2ccc(F)c(Cl)c2)cc1
MIC [6]: 12.5 µg/mL (≈ 29.4 µM)

COc1ccc(Nc2nn3c(O)cc(C)nc3c2C(=O)Nc2ccc(C)cc2C)cc1
MIC [6]: 50 µg/mL (≈ 120 µM)

O=C(CCC(F)(F)F)N1CCC(c2cnc(F)c(F)c2)CC1
EC50 [7]: < 0.15 µM
IC50 [8]: 0.01 µM

O=C(NNC(=O)C1CCNC(Br)C1)c1ccncc1 (stereo unspecified)
MIC [1]: 25 µg/mL (≈ 76.4 µM)

O=C(CCC(F)(F)F)N1CCC(c2cncc(C(F)(F)F)n2)CC1
EC50 [7]: < 0.15 µM
IC50 [8]: 0.01 µM

CC(C)(C)n1cc(C(=O)O)c(=O)c2cc(F)c(-c3ccc(Cl)cc3)cc21
MIC [2]: 1 µg/mL (≈ 2.68 µM)
MIC [3]: 1 µg/mL (≈ 2.68 µM)
MIC [4]: 1 µg/mL (≈ 2.68 µM)
MIC [5]: 1 µg/mL (≈ 2.68 µM)

O=C(CCC(F)(F)F)N1CCC(c2cncc(C(F)(F)F)c2)CC1
EC50 [7]: < 0.15 µM
IC50 [8]: 0.01 µM

COc1ccc(C(=O)NNC(=O)c2ccncc2)cc1OC
MIC [1]: 50 µg/mL (≈ 166 µM)

COc1ccc(C2CCN(C(=O)CCC(F)(F)F)CC2)cn1
EC50 [7]: < 0.15 µM
IC50 [8]: 0.01 µM

Cc1ccc(NC(=O)c2c(Nc3ccccc3)nn3c(O)cc(C)nc23)cc1
MIC [6]: 50 µg/mL (≈ 134 µM)

O=C(Cc1ccccc1F)NNC(=O)c1ccncc1
MIC [1]: 6.25 µg/mL (≈ 22.9 µM)

COc1ccc(/C=C/C(=O)NNC(=O)c2ccncc2)cc1
MIC [1]: 12.5 µg/mL (≈ 42 µM)

Cc1cc(O)n2nc(Nc3ccc(F)cc3)c(C(=O)Nc3cccc(Cl)c3)c2n1
MIC [6]: 12.5 µg/mL (≈ 30.4 µM)

CC(C)(C)n1cc(C(=O)O)c(=O)c2cc(F)c(-c3ccc(-c4ccccc4)cc3)cc21
MIC [2]: 4 µg/mL (≈ 9.63 µM)
MIC [3]: 4 µg/mL (≈ 9.63 µM)
MIC [4]: 4 µg/mL (≈ 9.63 µM)
MIC [5]: 4 µg/mL (≈ 9.63 µM)

CC(C)c1ccc(-c2cc3c(cc2F)c(=O)c(C(=O)O)cn3C(C)(C)C)cc1
MIC [2]: 2 µg/mL (≈ 5.24 µM)
MIC [3]: 4 µg/mL (≈ 10.5 µM)
MIC [4]: 4 µg/mL (≈ 10.5 µM)
MIC [5]: 4 µg/mL (≈ 10.5 µM)

COC1=NOC2(CCN(C(=O)CCCl)CC2)C1
EC50 [7]: < 0.038 µM
IC50 [8]: 0.05 µM

O=C(CCC(F)(F)F)N1CC(c2ccc(F)cc2F)C1
EC50 [7]: < 0.01 µM
IC50 [8]: 0.01 µM

CCOc1ccc(NC(=O)c2c(Nc3ccccc3)nn3c(O)cc(C)nc23)cc1
MIC [6]: 50 µg/mL (≈ 124 µM)

O=C(CCC(F)(F)F)N1CCC(c2ccncc2F)CC1
EC50 [7]: < 0.15 µM
IC50 [8]: 0.01 µM

O=C(NNC(=O)c1ccco1)c1ccncc1
MIC [1]: 12.5 µg/mL (≈ 54.1 µM)

O=C(CCC(F)(F)F)N1CCC(c2ccnc(F)c2)CC1
EC50 [7]: < 0.15 µM
IC50 [8]: 0.01 µM

CC(C)(C)n1cc(C(=O)O)c(=O)c2cc(F)c(-c3cccnc3)cc21
MIC [2]: 0.25 µg/mL (≈ 0.735 µM)
MIC [3]: 0.25 µg/mL (≈ 0.735 µM)
MIC [4]: 0.25 µg/mL (≈ 0.735 µM)
MIC [5]: 0.25 µg/mL (≈ 0.735 µM)

O=C(CCCC(F)(F)F)N1CCC(c2cncc(Cl)c2)CC1
EC50 [7]: < 0.15 µM
IC50 [8]: 0.01 µM

CC1=NOC2(CCN(C(=O)CCC(F)(F)F)CC2)C1
EC50 [7]: < 0.038 µM
IC50 [8]: 0.05 µM

O=C(CCC(F)(F)F)N1CC(c2cc(F)c(F)c(F)c2)C1
EC50 [7]: < 0.01 µM
IC50 [8]: 0.01 µM

O=C(CCC(F)(F)F)N1CCC(F)(c2ccnc(F)c2)CC1
EC50 [7]: < 0.15 µM
IC50 [8]: 0.01 µM

Cc1cc(C2CCN(C(=O)CCC(F)(F)F)CC2)ccn1
EC50 [7]: < 0.15 µM
IC50 [8]: 0.01 µM

CCCCCCOC1=NOC2(CCN(C(=O)CCC(F)(F)F)CC2)C1
EC50 [7]: < 0.038 µM
IC50 [8]: 0.05 µM

Cc1cc(O)n2nc(Nc3ccccc3)c(C(=O)Nc3ccccc3)c2n1
MIC [6]: 50 µg/mL (≈ 139 µM)

O=C(CCC(F)(F)F)N1CCC(c2cncc(Cl)n2)CC1
EC50 [7]: < 0.15 µM
IC50 [8]: 0.01 µM

Cc1cccc(C(=O)NNC(=O)c2ccncc2)c1
MIC [1]: 12.5 µg/mL (≈ 49 µM)

O=C(Cc1ccccc1Cl)NNC(=O)c1ccncc1
MIC [1]: 25 µg/mL (≈ 86.3 µM)

O=C(CCC(F)(F)F)N1CCC(c2ncc(F)cc2F)CC1
EC50 [7]: < 0.15 µM
IC50 [8]: 0.01 µM

COc1ccc(NC(=O)c2c(Nc3cccc(C)c3C)nn3c(O)cc(C)nc23)cc1
MIC [6]: 50 µg/mL (≈ 120 µM)

O=C(CCC(F)(F)F)N1CCC(F)(c2ccnc(Cl)c2)CC1
EC50 [7]: < 0.15 µM
IC50 [8]: 0.01 µM

O=C(NNC(=O)c1cc(O)ccc1O)c1ccncc1
MIC [1]: 50 µg/mL (≈ 183 µM)

CCN1CCN(c2nn3c(O)cc(C)nc3c2C(=O)Nc2cccc(Cl)c2Cl)CC1
MIC [6]: 50 µg/mL (≈ 111 µM)

CC(C)(C)n1cc(C(=O)O)c(=O)c2cc(F)c(Oc3ccccc3)cc21
MIC [2]: 8 µg/mL (≈ 22.5 µM)
MIC [3]: 16 µg/mL (≈ 45 µM)
MIC [4]: 16 µg/mL (≈ 45 µM)
MIC [5]: 16 µg/mL (≈ 45 µM)

CCOC1=NOC2(CCN(C(=O)CCC(F)(F)F)CC2)C1
EC50 [7]: < 0.038 µM
IC50 [8]: 0.05 µM
